Structures are written as SMILES.

In test [1] the target is Phosphatidylinositol 4,5-bisphosphate 3-kinase catalytic subunit alpha isoform (Homo sapiens, UniProt P42336). Kind of test: Inhibition of recombinant human PI3Kalpha using PIP2 as substrate incubated for 1 hr by kinase-glo assay. In general terms: Kinase-Glo measures the ATP left after a reaction by luminescence.
The next test has as its system HCT-116. Kind of test: Antiproliferative activity against human HCT116 cells after 96 hrs by MTT assay. Type of test: functional, cell-based. Particulars: HCT-116, 96 h. A general note: Tetrazolium assays rely on reduction of a dye to a coloured formazan, in cell work by metabolically active cells.
The next test deals with Histone deacetylase 1 (Homo sapiens, UniProt Q13547). In words: Inhibition of recombinant C-terminal His/FLAG-tagged HDAC1 (unknown origin) expressed in baculovirus infected Sf9 insect cells using Ac-peptide as substrate preincubated for 15 mins followed by substrate addition and measured after 1 hr.
Sequence of Histone deacetylase 1 (Q13547 whole entry): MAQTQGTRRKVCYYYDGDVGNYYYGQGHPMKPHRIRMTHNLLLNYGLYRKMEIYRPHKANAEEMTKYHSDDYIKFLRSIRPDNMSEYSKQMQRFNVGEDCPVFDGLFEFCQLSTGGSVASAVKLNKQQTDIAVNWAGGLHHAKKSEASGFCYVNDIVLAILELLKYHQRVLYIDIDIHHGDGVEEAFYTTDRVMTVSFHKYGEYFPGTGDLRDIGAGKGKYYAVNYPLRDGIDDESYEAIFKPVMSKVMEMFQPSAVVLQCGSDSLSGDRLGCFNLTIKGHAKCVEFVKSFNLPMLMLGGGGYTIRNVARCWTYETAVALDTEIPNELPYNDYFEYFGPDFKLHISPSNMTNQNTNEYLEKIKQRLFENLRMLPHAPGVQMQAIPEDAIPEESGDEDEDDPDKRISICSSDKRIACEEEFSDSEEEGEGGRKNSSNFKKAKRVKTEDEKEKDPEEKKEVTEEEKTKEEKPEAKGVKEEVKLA

Sequence of Phosphatidylinositol 4,5-bisphosphate 3-kinase catalytic subunit alpha isoform (P42336 whole entry, canonical isoform): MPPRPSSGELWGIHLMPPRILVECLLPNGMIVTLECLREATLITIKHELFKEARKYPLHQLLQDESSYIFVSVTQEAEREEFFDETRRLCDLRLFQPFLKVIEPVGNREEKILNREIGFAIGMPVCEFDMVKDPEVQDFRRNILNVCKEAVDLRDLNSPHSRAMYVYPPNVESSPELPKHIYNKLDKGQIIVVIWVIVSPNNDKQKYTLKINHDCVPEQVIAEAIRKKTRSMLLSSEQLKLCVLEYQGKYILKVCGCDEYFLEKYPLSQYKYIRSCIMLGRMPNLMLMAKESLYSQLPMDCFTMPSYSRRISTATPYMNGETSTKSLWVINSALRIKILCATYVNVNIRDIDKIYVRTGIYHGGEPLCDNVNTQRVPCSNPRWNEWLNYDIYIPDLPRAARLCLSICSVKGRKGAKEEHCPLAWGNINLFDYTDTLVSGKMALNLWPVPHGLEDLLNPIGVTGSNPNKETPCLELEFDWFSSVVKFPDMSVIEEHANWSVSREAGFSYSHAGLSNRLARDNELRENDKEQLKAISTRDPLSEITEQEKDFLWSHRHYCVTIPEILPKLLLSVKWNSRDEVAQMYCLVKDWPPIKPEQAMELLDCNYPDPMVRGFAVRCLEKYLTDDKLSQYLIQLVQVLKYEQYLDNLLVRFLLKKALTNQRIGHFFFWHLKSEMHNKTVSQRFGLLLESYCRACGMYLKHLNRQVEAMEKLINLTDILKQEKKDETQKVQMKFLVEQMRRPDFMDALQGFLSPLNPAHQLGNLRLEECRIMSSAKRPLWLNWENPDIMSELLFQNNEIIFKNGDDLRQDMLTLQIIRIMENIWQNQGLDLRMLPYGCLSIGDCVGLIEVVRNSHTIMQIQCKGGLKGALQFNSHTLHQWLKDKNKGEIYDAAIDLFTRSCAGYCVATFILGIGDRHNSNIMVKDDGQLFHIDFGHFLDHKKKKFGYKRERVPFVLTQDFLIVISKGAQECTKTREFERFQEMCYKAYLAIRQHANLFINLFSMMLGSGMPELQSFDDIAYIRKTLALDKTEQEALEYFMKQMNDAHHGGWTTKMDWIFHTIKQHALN

The term IC50 denotes the concentration that inhibits the measured activity by half. Turning to `COc1ccc(-c2cc(OCCCCC(=O)NO)c3ncnc(C)c3c2)cn1`, the IC50 in test [1] amounted to 51 nM; in the test with HCT-116, 1400 nM; at Histone deacetylase 1 it was 84 nM.
The like results for `COc1ccc(-c2cc(OCCCCCCCCC(=O)NO)c3ncnc(C)c3c2)cn1` were, in that order, 162 nM, 760 nM and 3 nM.
In the same order, the values of `COc1ncc(-c2cc(OCCCCCCCCC(=O)NO)c3ncnc(C)c3c2)cc1F` are 116 nM, 580 nM and 2.2 nM.
In the same order, the values of `COc1ncc(-c2cc(OCCCCCCC(=O)NO)c3ncnc(C)c3c2)cc1NS(=O)(=O)c1ccc(F)cc1F` are 0.69 nM, 7200 nM and 6.3 nM.
As to `COc1ncc(-c2cc(OCCN(C)c3ncc(C(=O)NO)cn3)c3ncnc(C)c3c2)cc1NS(=O)(=O)c1ccc(F)cc1F`, the IC50 in test [1] was determined as 1.8 nM; in the test with HCT-116, 530 nM; on Histone deacetylase 1 it was 1.7 nM.
The like results for `COc1ccc(-c2cc(OCCCN(C)c3ncc(C(=O)NO)cn3)c3ncnc(C)c3c2)cn1` were, in that order, 213 nM, 100 nM and 2.5 nM.
In the same order, the values of `COc1ccc(-c2cc(OCCN(c3ncc(C(=O)NO)cn3)C(C)C)c3ncnc(C)c3c2)cn1` are 82 nM, 39 nM and 1.6 nM.
The like results for `COc1ncc(-c2cc(OCCCCCCCCC(=O)NO)c3ncnc(C)c3c2)cc1NS(=O)(=O)c1ccc(F)cc1F` were, in that order, 0.9 nM, 4000 nM and 8.9 nM.
In the case of `COc1ncc(-c2cc(OCCCCCCC(=O)NO)c3ncnc(C)c3c2)cc1NS(C)(=O)=O`, the IC50 is 2.3 nM in test [1], 37000 nM in the test with HCT-116 and 1.3 nM on Histone deacetylase 1.
For `COc1ncc(-c2cc(OCCCCCCCC(=O)NO)c3ncnc(C)c3c2)cc1F`, the values for the IC50 (in test [1]; with HCT-116; at Histone deacetylase 1) were 54 nM, 1400 nM and 3.3 nM, respectively.
In the case of `COc1ncc(-c2cc(OCCCCNc3ncc(C(=O)NO)cn3)c3ncnc(C)c3c2)cc1F`, the IC50 amounted to 41 nM in test [1], 9300 nM with HCT-116 and 11 nM at Histone deacetylase 1.
In the same order, the values of `COc1ncc(-c2cc(OCCCCC(=O)NO)c3ncnc(C)c3c2)cc1NS(=O)(=O)c1ccc(F)cc1F` are 0.6 nM, 350 nM and 303 nM.
The like results for `COc1ncc(-c2cc(OCCCCCCCC(=O)NO)c3ncnc(C)c3c2)cc1NS(=O)(=O)c1ccc(F)cc1F` were, in that order, 0.63 nM, 1500 nM and 1.8 nM.
In the same order, the values of `CCN(CCOc1cc(-c2ccc(OC)nc2)cc2c(C)ncnc12)c1ncc(C(=O)NO)cn1` are 195 nM, 22 nM and 2.1 nM.
For `COc1ccc(-c2cc(OCCCC(=O)NO)c3ncnc(C)c3c2)cn1`, the IC50 is 73 nM in test [1], over 10000 nM in the test on HCT-116 and 91 nM on Histone deacetylase 1.
Turning to `COc1ncc(-c2cc(OCCN(c3ncc(C(=O)NO)cn3)C(C)C)c3ncnc(C)c3c2)cc1F`, the IC50 in test [1] is 43 nM; in the test with HCT-116 it was 96 nM; at Histone deacetylase 1, 2 nM.
In the same order, the values of `COc1ncc(-c2cc(OCCCNc3ncc(C(=O)NO)cn3)c3ncnc(C)c3c2)cc1F` are 43 nM, 2100 nM and 4 nM.
In the same order, the values of `COc1ncc(-c2cc(OCCCC(=O)NO)c3ncnc(C)c3c2)cc1NS(=O)(=O)c1ccc(F)cc1F` are 1.3 nM, over 10000 nM and 37 nM.
As for `COc1ncc(-c2cc(OCCNc3ncc(C(=O)NO)cn3)c3ncnc(C)c3c2)cc1F`, the IC50 in test [1] stood at 43 nM; in the test with HCT-116, 4600 nM; on Histone deacetylase 1 it was 5.3 nM.
In the same order, the values of `COc1ncc(-c2cc(OCCCCCCCCC(=O)NO)c3ncnc(C)c3c2)cc1NS(C)(=O)=O` are 4 nM, 11000 nM and 4.9 nM.
In the same order, the values of `COc1ncc(-c2cc(OCCN(C)c3ncc(C(=O)NO)cn3)c3ncnc(C)c3c2)cc1F` are 73 nM, 30 nM and 1.3 nM.
The like results for `COc1ncc(-c2cc(OCCCCCC(=O)NO)c3ncnc(C)c3c2)cc1F` were, in that order, 30 nM, 1200 nM and 37 nM.
Take `COc1ncc(-c2cc(OCCCCCC(=O)NO)c3ncnc(C)c3c2)cc1NS(=O)(=O)c1ccc(F)cc1F`: the IC50 was 0.66 nM in test [1], 540 nM in the test with HCT-116 and 39 nM at Histone deacetylase 1.
In the same order, the values of `COc1ncc(-c2cc(OCCCN(C)c3ncc(C(=O)NO)cn3)c3ncnc(C)c3c2)cc1F` are 94 nM, 82 nM and 2.4 nM.
In the same order, the values of `COc1ncc(-c2cc(OCCCCCCCC(=O)NO)c3ncnc(C)c3c2)cc1NS(C)(=O)=O` are 3.9 nM, 3400 nM and 2.1 nM.
The like results for `COc1ccc(-c2cc(OCCCCCC(=O)NO)c3ncnc(C)c3c2)cn1` were, in that order, 58 nM, 540 nM and 30 nM.
With `COc1ccc(-c2cc(OCC(=O)NO)c3ncnc(C)c3c2)cn1`, the IC50 was 68 nM in test [1], over 10000 nM in the test with HCT-116 and 166 nM on Histone deacetylase 1.
In the same order, the values of `COc1ccc(-c2cc(OCCCCCCCC(=O)NO)c3ncnc(C)c3c2)cn1` are 143 nM, 800 nM and 3.7 nM.
In the same order, the values of `CCN(CCOc1cc(-c2cnc(OC)c(F)c2)cc2c(C)ncnc12)c1ncc(C(=O)NO)cn1` are 72 nM, 39 nM and 2.6 nM.
In the same order, the values of `COc1ncc(-c2cc(OCCCCCC(=O)NO)c3ncnc(C)c3c2)cc1NS(C)(=O)=O` are 5.1 nM, over 10000 nM and 42 nM.
Take `COc1ncc(-c2cc(OCCCCN(C)c3ncc(C(=O)NO)cn3)c3ncnc(C)c3c2)cc1F`: the IC50 in test [1] was 48 nM; in the test on HCT-116, 250 nM; at Histone deacetylase 1, 3.3 nM.
The like results for `COc1ncc(-c2cc(OCCCN(C)c3ncc(C(=O)NO)cn3)c3ncnc(C)c3c2)cc1NS(=O)(=O)c1ccc(F)cc1F` were, in that order, 1.1 nM, 2900 nM and 11 nM.

Values taken from ChEMBL document CHEMBL4311940, “Design, Synthesis, and Biological Evaluation of 4-Methyl Quinazoline Derivatives as Anticancer Agents Simultaneously Targeting Phosphoinositide 3-Kinases and Histone Deacetylases” (J Med Chem, 2019).
